Several values for one entry are separate records, joined by “and”; a condition that tells them apart may be missing. Identical values can stand only once.
Assays:
[1] = (§1) Human liver microsomal stability of compound in microsomal protein, PBS buffer pH 7.4, NADPH, glucose-6-phosphate and glucose-6-phosphate dehydrogenase media. Aliquotes were taken at 5 time points and after stopping the reaction, supernatants were analyzed using HPLC coupled with a tandem mass spectrometer. The elimination constant, half-life, and intrinsic clearance are determined as results using linear regression analysis. The assay has been performed by Enamine biological services, Bienta Ltd.The protocol is publicly available: dx.doi.org/10.17504/protocols.io.5qpvokdb9l4o/v1; type: ADME, microsomes, Microsome; settings: for half-life / microsomal CLint: liver microsomes; for Remaining / Remaining (without cofactor) / CLint / T1/2: microsomes
[2] = as §1, with “Mouse” for “Human”; type: ADME, microsomes, Microsome; settings: for half-life / microsomal CLint: liver microsomes; for Remaining / Remaining (without cofactor) / CLint / T1/2: microsomes
Wherever Remaining (without cofactor) is given: time not given here.
Wherever Remaining is given: time not given here.

| SMILES | half-life [1] | microsomal CLint [1] | Remaining [1] | Remaining (without cofactor) [1] | half-life [2] | microsomal CLint [2] | Remaining [2] | Remaining (without cofactor) [2] | CLint [1] | T1/2 [1] | CLint [2] | T1/2 [2] |
| --- | --- | --- | --- | --- | --- | --- | --- | --- | --- | --- | --- | --- |
| CC(C)[C@H](Nc1ncnc2[nH]c(-c3cnn(CC(N)=O)c3)cc12)c1ccc2c(c1)S(=O)(=O)CCC2 | 7 min | 240 µL/min/mg | 2% | 115% | 42.6 min | 39 µL/min/mg | 53% | 98% |  |  |  |  |
| CNCc1cc(-c2cc3c(N[C@@H](c4ccc5c(c4)S(=O)(=O)NCC5)C(C)C)ncnc3[nH]2)co1 | 35.9 min | 46 µL/min/mg | 47% | 93% | 40 min | 42 µL/min/mg | 49% | 95% |  |  |  |  |
| CC(C)[C@@H](Nc1ncnc2[nH]c(-c3cnn(CC(=O)N(C)C)c3)cc12)c1ccc2c(c1)S(=O)(=O)CCC2 |  |  |  | 92% and 99% |  |  | 31% and 59% | 92% and 102% | 106 µL/min/mg and 297 µL/min/mg | 15.8 min and 5.6 min | 68 µL/min/mg and 31 µL/min/mg | 24.6 min and 53.8 min |
| Cn1ncc(-c2cc3c(N[C@@H](c4ccc5c(c4)OCCO5)C(C)(C)C)ncnc3[nH]2)c1C#N | 19.6 min | 85 µL/min/mg | 22% | 109% | 8.4 min | 199 µL/min/mg | 4% | 100% |  |  |  |  |
| CC(C)[C@H](Nc1ncnc2[nH]cc(C(=O)NC3CC3)c12)c1ccc2c(c1)S(=O)(=O)CCC2 | 320 min | 5 µL/min/mg | 90% | 112% | 39.5 min | 42 µL/min/mg | 50% | 102% |  |  |  |  |
| CC(C)[C@H](Nc1ncnc2[nH]c(-c3cnn(CC(=O)N(C)C)c3)cc12)c1ccc2c(c1)S(=O)(=O)CCC2 | 18.1 min | 92 µL/min/mg | 22% | 97% | 13.5 min | 124 µL/min/mg | 13% | 98% |  |  |  |  |
| CCNC(=O)c1cc2c(N[C@@H](c3ccc4c(c3)S(=O)(=O)CCC4)C(C)C)ncnc2[nH]1 |  |  | 15% and 0% | 98% and 102% | 19.5 min | 85 µL/min/mg | 21% and 43% | 95% and 114% |  |  | 54 µL/min/mg | 30.8 min |
| CNC(=O)Cn1cc(-c2cc3c(N[C@@H](c4ccc5c(c4)OCCO5)C(C)C)ncnc3[nH]2)cn1 | 14 min | 119 µL/min/mg | 14% | 92% | 35.7 min | 47 µL/min/mg | 46% | 90% |  |  |  |  |
| CC(C)(C)[C@@H](Nc1ncnc2[nH]c(-c3cnn(CC(N)=O)c3)cc12)c1ccc2c(c1)OCCO2 | 12.6 min | 133 µL/min/mg | 11% and 18% | 87% and 109% | 35.2 min | 47 µL/min/mg | 46% and 54% | 107% and 106% | 100 µL/min/mg | 16.8 min | 39 µL/min/mg | 43.1 min |
| C[C@@H](C(=O)O)[C@@H](NC(=O)c1ncnc2[nH]ccc12)c1ccc(Br)cc1 | 338 min | 5 µL/min/mg | 103% | 110% | 433 min | 4 µL/min/mg | 94% | 109% |  |  |  |  |
| CNC(=O)c1cc2c(N[C@@H](c3ccc4c(c3)OCCO4)C(C)C)ncnc2[nH]1 | 21.1 min | 79 µL/min/mg | 23% | 92% | 30.5 min | 55 µL/min/mg | 43% | 112% |  |  |  |  |
| CNC(=O)c1c[nH]c2ncnc(N[C@@H](c3ccc4c(c3)S(=O)(=O)CCC4)C(C)C)c12 | 12.8 min | 131 µL/min/mg | 11% and 17% | 104% and 94% | 8.7 min | 192 µL/min/mg |  | 92% and 108% | 108 µL/min/mg | 15.4 min | 113 µL/min/mg | 14.7 min |
| CC(C)(C)[C@H](Nc1ncnc2[nH]c(-c3cnn(CC(N)=O)c3)cc12)c1ccc2c(n1)OCCO2 | 60.8 min | 27 µL/min/mg | 64% | 95% | 162 min | 10 µL/min/mg | 88% | 116% |  |  |  |  |
| CC(C)[C@@H](Nc1ncnc2[nH]c(-c3cnn(C)c3C#N)cc12)c1ccc2c(c1)OCCO2 | 22.6 min | 74 µL/min/mg | 25% and 46% | 111% and 101% | 7.7 min | 218 µL/min/mg | 3% and 13% | 97% and 106% | 47 µL/min/mg | 35.4 min | 129 µL/min/mg | 13 min |
| CC(C)[C@H](Nc1ncnc2[nH]c(-c3cnn(C)c3C#N)cc12)c1ccc2c(n1)NC(=O)CO2 | 12.2 min | 137 µL/min/mg | 10% | 92% | 12.8 min | 131 µL/min/mg | 12% | 85% |  |  |  |  |
| CNCc1cc(-c2cc3c(N[C@@H](c4ccc5c(c4)S(=O)(=O)CCC5)C(C)C)ncnc3[nH]2)co1 |  |  |  | 110% and 95% | 32.2 min | 52 µL/min/mg | 41% and 35% | 108% and 101% | 57 µL/min/mg and 133 µL/min/mg | 29.4 min and 12.6 min | 54 µL/min/mg | 30.9 min |
| CCNC(=O)c1cc2c(N[C@@H](c3ccc4c(c3)OCCO4)C(C)C)ncnc2[nH]1 |  |  |  | 103% and 97% | 19 min | 88 µL/min/mg | 24% and 29% | 109% and 92% |  |  | 72 µL/min/mg | 23.2 min |
| CCNC(=O)c1cc2c(N[C@@H](c3ccc4c(c3)S(=O)(=O)CCO4)C(C)C)ncnc2[nH]1 | 26.2 min | 64 µL/min/mg | 33% | 95% | 65.5 min | 26 µL/min/mg | 66% | 99% |  |  |  |  |
| CC(C)[C@@H](Nc1ncnc2[nH]c(-c3cnn(C)c3C#N)cc12)c1ccc2c(n1)NC(=O)CO2 | 23.7 min | 70 µL/min/mg | 30% and 43% | 97% and 98% | 11.5 min | 145 µL/min/mg | 9% and 5% | 92% | 51 µL/min/mg | 32.6 min | 189 µL/min/mg | 8.8 min |
| CNC(=O)c1c[nH]c2ncnc(N[C@@H](c3ccc4c(c3)OCCO4)C(C)C)c12 | 21.2 min | 79 µL/min/mg | 27% | 113% | 19 min | 88 µL/min/mg | 20% | 95% |  |  |  |  |
| CNC(=O)c1cc2c(N[C@H](c3ccc4c(c3)S(=O)(=O)CCC4)C(C)C)ncnc2[nH]1 | 25 min | 67 µL/min/mg | 33% | 107% | 35.3 min | 47 µL/min/mg | 42% | 106% |  |  |  |  |
| CC(C)[C@@H](Nc1ncnc2[nH]c(-c3cnn(CC(N)=O)c3)cc12)c1ccc2c(n1)OCCO2 | 120 min | 14 µL/min/mg | 77% | 95% | 145 min | 12 µL/min/mg | 83% and 90% | 104% and 102% | 18 µL/min/mg | 91.8 min | 9 µL/min/mg | 182.3 min |
| COc1ccc([C@@H](Cc2nnn[nH]2)NC(=O)c2ncnc3[nH]ccc23)cc1 | 314 min | 5 µL/min/mg | 86% | 110% | 4400 min |  | 96% | 93% |  |  |  |  |
| CC(C)[C@@H](Nc1ncnc2[nH]c(-c3cnn(CCC(N)=O)c3)cc12)c1ccc2c(c1)OCCO2 | 16.9 min | 99 µL/min/mg | 19% | 108% | 27.1 min | 62 µL/min/mg | 36% | 106% |  |  |  |  |
| CNC(=O)c1cc2c(N[C@@H](c3ccc4c(c3)S(=O)(=O)CCC4)C(C)C)ncnc2[nH]1 |  |  | 25% and 0% | 101% and 94% | 36.5 min | 46 µL/min/mg | 47% and 69% | 100% and 97% |  |  | 23 µL/min/mg | 71.6 min |
| O=C(Nc1ccccc1)Nc1ccc(C(=O)NC2c3cccc(O)c3CC2C(=O)O)cc1 (stereo not given) | 187 min | 9 µL/min/mg | 123% | 96% | 1070 min | 2 µL/min/mg | 111% | 99% |  |  |  |  |

Reference: ChEMBL document CHEMBL5442168, “ASAP - In vitro liver microsomal stability” (2024)
